Data as given in ChEMBL document CHEMBL2417542 (Bioorg Med Chem Lett, 2013).
≈ marks a conversion by molar mass, not a printed value.

Experiments:
[1] = tested on: Human immunodeficiency virus 1; assay: Antiviral activity against HIV1 3B harboring reverse transcriptase K103N/Y181C double mutant infected in human MT2 cells assessed as protection against virus-induced effect by MTT assay; assay type: functional, organism-based
[2] = tested on: Human immunodeficiency virus 1; assay: Antiviral activity against HIV1 3B harboring reverse transcriptase Y181C mutant infected in human MT2 cells assessed as protection against virus-induced effect by MTT assay; assay type: functional, organism-based
[3] = tested on: Human immunodeficiency virus 1; assay: Antiviral activity against HIV1 3B harboring reverse transcriptase Y181C mutant infected in human MT4 cells assessed as protection against virus-induced effect; assay type: functional, organism-based; conditions: Human immunodeficiency virus 1, 3B
[4] = tested on: Human immunodeficiency virus 1; assay: Antiviral activity against wild type HIV1 3B infected in human MT4 cells assessed as protection against virus-induced effect; assay type: functional, organism-based; conditions: Human immunodeficiency virus 1, 3B
MT2 = assay: (§1) Cytotoxicity against human MT2 cells assessed as growth inhibition; assay type: cell-based; conditions: mt2
[5] = Solubility of the compound in water by HPLC analysis; assay type: physicochemical
[6] = as §1; assay type: cell-based; conditions: MT2 cells
[7] = Aqueous solubility of the compound in Britton-Robinson buffer at pH 6.5 after 48 hrs by shake-flask method; assay type: physicochemical
[8] = Equilibrium solubility of the compound by shake-flask method; assay type: physicochemical
[9] = Aqueous solubility of the compound; assay type: physicochemical; conditions: aqueous medium
[10] = Intrinsic solubility of the compound in water at 25 degC after 7 days by HPLC analysis; assay type: physicochemical; conditions: buffer, 168 h
[11] = Human immunodeficiency virus 1, 3B, MT2, read-out: EC50

| Structure (SMILES) | EC50 [1, 11] | EC50 [2, 11] | solubility thermodynamic at 48 h [7] | further results |
| --- | --- | --- | --- | --- |
| Cc1cc(C)c(Nc2nc(Nc3ccc(C#N)cc3)nc(OCCC3CCNCC3)n2)c(C)c1 | 100 nM | 1000 nM |  |  |
| Cc1cc(C)c(Nc2ccnc(Nc3ccc(C#N)cc3)n2)c(C)c1 [DAPIVIRINE] | 39 nM | 39 nM |  | EC50 [3]: 7 nM; EC50 [4]: 1.2 nM; CC50 (MT2): 2000 nM |
| Cc1ccnc2c1NC(=O)c1cccnc1N2C1CC1 [NEVIRAPINE] |  |  |  | solubility [5]: 167 µg/mL (≈ 627 µM); EC50 ([1]; mt2): Not Active; CC50 [6]: > 100000 nM; EC50 ([2]; mt2): Not Active |
| CCc1cc(F)c(Nc2nc(Nc3ccc(C#N)cc3)nc(OCCCN3CCOCC3)n2)c(F)c1 | 50 nM | 500 nM |  |  |
| Cc1cc(C)c(Nc2nc(Nc3ccc(C#N)cc3)nc(OCCCN3CCOCC3)n2)c(C)c1 | 31 nM | 310 nM | 15.3 µg/mL (≈ 32.3 µM) |  |
| Cc1cc(C)c(Nc2nc(Nc3ccc(C#N)cc3)nc(OCCCC3CCNCC3)n2)c(C)c1 | 140 nM | 1200 nM |  |  |
| Cc1cc(C#N)cc(C)c1Nc1nc(Nc2ccc(C#N)cc2)nc(OCCCN2CCOCC2)n1 | 42 nM | 1000 nM | 13.3 µg/mL (≈ 27.4 µM) |  |
| CN1C(C(=O)Nc2ccccn2)=C(O)c2ccccc2S1(=O)=O [PIROXICAM] |  |  | 7.2 µg/mL (≈ 21.7 µM) | solubility thermodynamic [8]: 6.4 µg/mL (≈ 19.3 µM) |
| Cc1cc(/C=C/C#N)cc(C)c1Nc1nc(Nc2ccc(C#N)cc2)nc(OCCCN2CCOCC2)n1 |  |  | 14.2 µg/mL (≈ 27.8 µM) |  |
| Cc1cc(C)c(Nc2cc(OCCN3CCOCC3)nc(Nc3ccc(C#N)cc3)n2)c(C)c1 | 60 nM | 700 nM | 12.5 µg/mL (≈ 27.3 µM) |  |
| N#Cc1ccc(Nc2nc(Nc3c(F)cc(C4CC4)cc3F)nc(OCCCN3CCOCC3)n2)cc1 | 150 nM | 1100 nM |  |  |
| Cc1cc(C)c(Nc2nc(Nc3ccc(C#N)cc3)nc(OCCN3CCOCC3)n2)c(C)c1 | 110 nM | 700 nM | 4.42 µg/mL (≈ 9.62 µM) |  |
| Cc1cc(C#N)cc(C)c1Oc1nc(Nc2ccc(C#N)cc2)nc(N)c1Br [ETRAVIRINE] |  |  |  | solubility [9]: < 1 µg/mL |
| Cc1cc(C)c(Nc2cc(OCCCN3CCOCC3)nc(Nc3ccc(C#N)cc3)n2)c(C)c1 | 38 nM | 480 nM | 27.3 µg/mL (≈ 57.8 µM) |  |
| CC(C)=CCOc1cc(NC(=S)c2ccoc2C)ccc1Cl [UC 781] |  |  |  | Intrinsic_solubility [10]: < 0.03 µg/mL |
| Cc1cc(F)c(Nc2nc(Nc3ccc(C#N)cc3)nc(OCCCN3CCOCC3)n2)c(F)c1 | 70 nM | 350 nM | 22.9 µg/mL (≈ 47.6 µM) |  |
| Cc1cc(C)c(Nc2ncnc(Nc3ccc(C#N)cc3)n2)c(C)c1 |  |  | 0.2 µg/mL (≈ 0.605 µM) |  |
| CC(C)c1cc(F)c(Nc2nc(Nc3ccc(C#N)cc3)nc(OCCCN3CCOCC3)n2)c(F)c1 | 30 nM | 270 nM |  |  |
